Assay results: patent publication US6365407B1, “Culture medium composition useful for induction and proliferation of Taxus calli” (Council of Scientific & Industrial Research, priority 2001, dated 2002)

Tests used:
Format in all cases: cell-based, Himalayan Yew
[1] = tested on: callus lines of Taxus baccata ssp. Wallichiana Zucc. Pilg.; experiment: Taxane/taxol production in callus cultures, HPLC analysis
Text: (§1) Thus the combination of the modified medium of the present invention with Picloram, Sucrose, Phytagel and Antioxidants is novel and conducive for good callus growth and Taxane production in vitro. The details are described herewith. The present invention also provides a process for the enhanced production of taxol and/or taxane class of molecules in the said callus cultures which comprises inoculating any plant part of the Himalayan yew in the said culture medium for a period of 30 to 60 days in dark and at a temperature ranging between 24-26° C., to obtain the undifferentiated mass of callus culture, extracting the product by conventional solvent extraction methods and analyzing the compounds by HPLC. The stems, needles and seeds (for excision of embryos and endosperms) derived from mature trees of Taxus baccata ssp. Wallichiana Zucc. Pilg., Himalayan Yew were first washed in soap water for five min. followed by 95% ethanol treatment for one min. The alcohol was washed off with four washes of double distilled water. Surface sterilization was done with 0.1% HgCl2 for 10 min. under vacuum followed by six washes with sterile distilled water. Following this, the explants were inoculated aseptically in pre-sterilized plastic dishes (55-mm diameter) containing the medium of the present invention.
The culture medium and method described in the present invention was tested on ex-plants of a number of matures trees (80-100 year old) collected from the Himalayas. The present protocol is applicable to all the ex-plants derived from all these trees of varying ages and genotypes. A series of callus lines were initiated and currently various callus lines of different ages produce the desirable taxanes. A number of callus lines of different ages and derived from diverse parent trees were analyzed by HPLC for detection of taxane class of molecules. […] For each of the callus lines, extractions were performed at least on three different occasions and duplicate HPLC injections were made on separate days to check for the reproducibility of the results.

[2] = tested on: ex-plants of Taxus baccata ssp. Wallichiana Zucc. Pilg.; experiment: Callus induction from ex-plants of mature trees; conditions: with or without antioxidants
Text: as §1, with “invention. The medium was prepared by mixing constituents mentioned in Tables 1 and 2. […]” for “invention.”

[3] = tested on: callus tissues of Taxus baccata ssp. Wallichiana Zucc. Pilg.; experiment: Growth of callus tissues on Picloram supplemented media; conditions: compared to media supplemented with other auxins reported earlier in the literature
Text: as §1, with “invention. The medium was prepared by mixing constituents mentioned in Tables 1 and 2. […]” for “invention.”

## Nc1c(Cl)c(Cl)nc(C(=O)O)c1Cl [Picloram]
[1]; 0.5-2 mg.l^-1 picloram, callus lines derived from needles of tree nos. 2, 6 and 7
  taxol content of callus: 190-300 μg taxol/g dry weight
[1]; 0.5-2 mg.l^-1 picloram, needles 0.934 μg taxol/g dry weight
  increase of taxol content in vitro than in vivo material: 203 to 321 times
[1]; 4-6 mg.l^-1 picloram, callus line 6, needles 0.0941 μg taxol/g dry weight
  increase of taxol content compared to the in vivo material: 5300-6200 times
[1]; 4-6 mg.l^-1 picloram, callus line 6 derived from needles
  taxol content of callus: 500-590 μg taxol/g dry weight
[1]; calli grown in Picloram supplemented media, compared to media supplemented with other auxins
  enhanced Taxane production: 2.0-5.4 times
[1]; highest producer callus
  Taxol production relative to in vivo needle tissues: ~5000 times
[2]; 0.5-2 mg.l^-1 picloram, tree nos. 2, 6 and 7
  Callus formation observed in ex-plants: 90%
[2]; 4-6 mg.l^-1 picloram, tree nos. 1, 3 and 4
  Callus formation observed in ex-plants: 90%
[3]
  enhanced growth rate of callus tissues: 1.5-2.0 times
